Reference: PMC6952396, “Structural basis for itraconazole-mediated NPC1 inhibition” (Nature Communications, 2020)
Like-named read-outs stand apart in the source and are kept apart here.

Biological target: T1, NPC1 (Cricetulus griseus, UniProt Q9JLG3)
T1 construct: CHO-7 cells in the medium are deprived of cholesterol to induce the LDL receptors biosynthesis; endogenous in cells; host or cells: CHO-7 cells
T1 sequence (Q9JLG3 23-1277): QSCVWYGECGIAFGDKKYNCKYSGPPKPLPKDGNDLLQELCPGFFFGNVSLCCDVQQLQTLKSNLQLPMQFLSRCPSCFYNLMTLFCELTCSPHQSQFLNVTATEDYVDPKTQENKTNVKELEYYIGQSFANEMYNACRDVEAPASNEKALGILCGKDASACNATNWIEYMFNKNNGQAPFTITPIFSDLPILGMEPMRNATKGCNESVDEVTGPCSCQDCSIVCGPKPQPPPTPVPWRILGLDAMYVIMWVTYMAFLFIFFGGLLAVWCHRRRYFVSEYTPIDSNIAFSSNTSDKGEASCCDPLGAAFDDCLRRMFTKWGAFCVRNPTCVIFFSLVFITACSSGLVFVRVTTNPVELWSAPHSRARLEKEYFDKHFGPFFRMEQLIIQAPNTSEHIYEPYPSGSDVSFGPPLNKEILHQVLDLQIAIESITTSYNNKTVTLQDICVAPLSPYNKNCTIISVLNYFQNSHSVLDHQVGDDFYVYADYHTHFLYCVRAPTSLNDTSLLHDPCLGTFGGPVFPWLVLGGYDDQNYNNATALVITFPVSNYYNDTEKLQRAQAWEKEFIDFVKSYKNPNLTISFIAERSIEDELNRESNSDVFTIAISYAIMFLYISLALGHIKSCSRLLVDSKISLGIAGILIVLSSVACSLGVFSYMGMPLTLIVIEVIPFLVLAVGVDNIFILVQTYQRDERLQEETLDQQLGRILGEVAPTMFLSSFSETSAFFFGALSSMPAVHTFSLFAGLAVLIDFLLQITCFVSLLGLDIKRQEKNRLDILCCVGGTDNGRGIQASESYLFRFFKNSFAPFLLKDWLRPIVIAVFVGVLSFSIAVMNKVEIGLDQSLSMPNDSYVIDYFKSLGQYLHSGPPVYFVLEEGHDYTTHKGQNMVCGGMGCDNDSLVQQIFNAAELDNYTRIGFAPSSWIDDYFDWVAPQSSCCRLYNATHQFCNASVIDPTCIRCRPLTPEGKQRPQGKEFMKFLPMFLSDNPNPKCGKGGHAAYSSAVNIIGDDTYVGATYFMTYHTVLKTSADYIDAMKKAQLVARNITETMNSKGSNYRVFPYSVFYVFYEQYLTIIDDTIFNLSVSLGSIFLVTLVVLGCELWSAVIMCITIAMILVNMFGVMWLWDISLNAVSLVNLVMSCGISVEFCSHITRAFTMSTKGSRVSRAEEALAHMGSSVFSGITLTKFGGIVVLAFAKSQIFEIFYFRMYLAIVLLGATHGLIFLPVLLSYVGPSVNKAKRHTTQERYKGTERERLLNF
Assay: Cholesterol re-esterification (ACAT) assay measuring NPC1-mediated export of cholesterol from lysosomes in CHO-7 cells
Assay type: cell-based
Conditions: for cholesteryl [14C] oleate formed, Repeat 1 / cholesteryl [14C] oleate formed, Repeat 2: Fig. 2 source data; for cholesteryl [14C] oleate formed, Repeat 3 / cholesteryl [14C] oleate formed, Repeat 4: Supplementary Fig. 3 source data
Source text: Itraconazole has three chiral centers (Supplementary Fig. 2a). The pharmaceutical form contains four cis-stereoisomers in a 1:1:1:1 molar ratio (Supplementary Fig. 2a–d). To determine the activity of the cis-stereoisomers, the individual isomers were isolated and identified based on their optical rotation in chloroform following a previous report (Supplementary Fig. 2e)[26]. Then, they were separately tested in a cholesterol re-esterification assay used to measure NPC1-mediated export of cholesterol from lysosomes. Briefly, CHO-7 cells in the medium are deprived of cholesterol to induce the LDL receptors biosynthesis. The cells are then incubated with fetal calf serum (FCS) that contains LDL. The LDL-derived cholesterol will now be transported by functional NPC1 protein from the lysosome to the endoplasmic reticulum (ER). The acyl-CoA:cholesterol actyltransferase named ACAT can now re-esterify the cholesterol in the ER. Therefore, the cells were pulse-labeled with [^14C] oleate and we can measure the synthesis of cholesteroyl [^14C] oleate to evaluate the activity of NPC1 protein. Using this assay, we tested the ability of various itraconazole to inhibit NPC1 activity.
Fig. 2 ACAT activity of itraconazole and ketoconazole in CHO-7 cells. On day 0, CHO-7 cells were set up in medium A with 5% LPDS at 2.5 × 10^5 cells/well in 6-well dish. On day 2, cells were switched to medium A with 5% LPDS containing 50 µM sodium compactin and 50 µM sodium mevalonate. On day 3 the cells received fresh medium B containing compactin and mevalonate with various concentration compounds in the presence of 10% FCS containing lipoproteins. After incubation for 4 h at 37 °C, each cell monolayer was pulse-labeled for 2 h with 0.1 mM sodium [^14C] oleate (5792 dpm/nmol). The cells were then harvested for measurement of their content of cholesteryl [^14C] oleate and [^14C] triglycerides, as described in Methods. […] Itraconazole mixture, isomer A (Supplementary Fig. 2a), isomer B (Supplementary Fig. 2b) and isomer C (Supplementary Fig. 2c) were added at final concentrations of 0.3 μM. The isomer D (Supplementary Fig. 2d), I-Br and ketoconazole were added at final concentrations of 1 μM. The biological repeats are shown as individual values. Source data are provided as a Source Data file.
On day 0, cells were set up in medium A with 5% LPDS at 2.5 × 10^5 cells/well in six-well dish. On day 2, cells were switched to medium A with 5% LPDS containing 50 µM sodium compactin and 50 µM sodium mevalonate. On day 3 the cells received fresh medium B containing compactin and mevalonate with indicated concentration triazole compounds in the presence of 10% FCS containing lipoproteins. After incubation for 4 h at 37 °C, each cell monolayer was pulse-labeled for 2 h with 0.1 mM sodium [^14C] oleate (5792 dpm/nmol). The cells were then harvested for measurement of their content of cholesteryl [^14C] oleate and [^14C] triglycerides.
The rate of incorporation of [^14C] oleate into cholesteryl [^14C] oleate and [^14C] triglycerides by monolayers of NPC1^−/− cells and CHO-7 cells was measured as described previously. In brief, cells were switched to medium containing LPDS supplemented with compactin and mevolonate at 16 h before the experiments. On the day of the experiment, cells were incubated for 4 h with fresh medium containing FCS as a source of cholesterol-containing lipoproteins. Cells were then pulse –labeled for 2 h with 0.1 mM sodium [^14C] oleate. Cells were then washed, and the lipids were extracted in hexane:isopropanol (3:2, vol:vol), separated on a silica gel G thin-layer chromatogram (developed in heptane:ethylether:acetic acid, 90:30:1), and quantified by scintillation counting with the use of an internal standard for recovery.

Compound | cholesteryl [14C] oleate formed, Repeat 1 (0.01 uM compound) | cholesteryl [14C] oleate formed, Repeat 2 (0.01 uM compound) | cholesteryl [14C] oleate formed, Repeat 3 (0.01 uM compound) | cholesteryl [14C] oleate formed, Repeat 4 (0.01 uM compound) | cholesteryl [14C] oleate formed, Repeat 1 (0.03 uM compound) | cholesteryl [14C] oleate formed, Repeat 2 (0.03 uM compound) | cholesteryl [14C] oleate formed, Repeat 3 (0.03 uM compound) | cholesteryl [14C] oleate formed, Repeat 4 (0.03 uM compound) | cholesteryl [14C] oleate formed, Repeat 1 (0.06 uM compound) | cholesteryl [14C] oleate formed, Repeat 2 (0.06 uM compound) | cholesteryl [14C] oleate formed, Repeat 3 (0.06 uM compound) | cholesteryl [14C] oleate formed, Repeat 4 (0.06 uM compound) | cholesteryl [14C] oleate formed, Repeat 1 (0.1 uM compound) | cholesteryl [14C] oleate formed, Repeat 2 (0.1 uM compound) | cholesteryl [14C] oleate formed, Repeat 3 (0.1 uM compound) | cholesteryl [14C] oleate formed, Repeat 4 (0.1 uM compound) | cholesteryl [14C] oleate formed, Repeat 1 (0.3 uM compound) | cholesteryl [14C] oleate formed, Repeat 2 (0.3 uM compound) | cholesteryl [14C] oleate formed, Repeat 3 (0.3 uM compound) | cholesteryl [14C] oleate formed, Repeat 4 (0.3 uM compound) | also measured
CCC(C)n1ncn(-c2ccc(N3CCN(c4ccc(OCC5COC(Cn6cncn6)(c6ccc(Cl)cc6Cl)O5)cc4)CC3)cc2)c1=O (stereo not shown) [Itra-D] | 5.124 nanomoles formed per hour per milligram cell protein | 4.829 nanomoles formed per hour per milligram cell protein | 5.364 nanomoles formed per hour per milligram cell protein | 5.55 nanomoles formed per hour per milligram cell protein | 5.201 nanomoles formed per hour per milligram cell protein | 5.414 nanomoles formed per hour per milligram cell protein | 4.815 nanomoles formed per hour per milligram cell protein | 5.633 nanomoles formed per hour per milligram cell protein | 4.957 nanomoles formed per hour per milligram cell protein | 4.372 nanomoles formed per hour per milligram cell protein | 4.6935 nanomoles formed per hour per milligram cell protein | 4.899 nanomoles formed per hour per milligram cell protein | 4.223 nanomoles formed per hour per milligram cell protein | 3.931 nanomoles formed per hour per milligram cell protein | 3.618 nanomoles formed per hour per milligram cell protein | 3.755 nanomoles formed per hour per milligram cell protein | 1.696 nanomoles formed per hour per milligram cell protein | 0.8471 nanomoles formed per hour per milligram cell protein | 0.9245 nanomoles formed per hour per milligram cell protein | 0.77 nanomoles formed per hour per milligram cell protein | cholesteryl [14C] oleate formed, Repeat 1 (1 uM compound): 0.3184 nanomoles formed per hour per milligram cell protein; cholesteryl [14C] oleate formed, Repeat 2 (1 uM compound): 0.2982 nanomoles formed per hour per milligram cell protein; cholesteryl [14C] oleate formed, Repeat 3 (1 uM compound): 0.3042 nanomoles formed per hour per milligram cell protein; cholesteryl [14C] oleate formed, Repeat 4 (1 uM compound): 0.4741 nanomoles formed per hour per milligram cell protein; IC50 (read-out: IC50 (concentration at which each compound inhibited cholesterol esterification by 50%), 10% FCS, 4 h then 2 h [14C] oleate pulse): 175 nM
CCC(C)n1ncn(-c2ccc(N3CCN(c4ccc(OCC5COC(Cn6cncn6)(c6ccc(Cl)cc6Cl)O5)cc4)CC3)cc2)c1=O (stereo not shown) [Itra-C] | 2.751 nanomoles formed per hour per milligram cell protein | 4.364 nanomoles formed per hour per milligram cell protein | 5.964 nanomoles formed per hour per milligram cell protein | 6.001 nanomoles formed per hour per milligram cell protein | 3.794 nanomoles formed per hour per milligram cell protein | 3.288 nanomoles formed per hour per milligram cell protein | 5.048 nanomoles formed per hour per milligram cell protein | 4.017 nanomoles formed per hour per milligram cell protein | 2.064 nanomoles formed per hour per milligram cell protein | 2.2038 nanomoles formed per hour per milligram cell protein | 2.593 nanomoles formed per hour per milligram cell protein | 3.086 nanomoles formed per hour per milligram cell protein | 1.063 nanomoles formed per hour per milligram cell protein | 0.9711 nanomoles formed per hour per milligram cell protein | 0.7465 nanomoles formed per hour per milligram cell protein | 0.811 nanomoles formed per hour per milligram cell protein | 0.4254 nanomoles formed per hour per milligram cell protein | 0.7413 nanomoles formed per hour per milligram cell protein | 0.1456 nanomoles formed per hour per milligram cell protein | 0.04925 nanomoles formed per hour per milligram cell protein | IC50 (IC50 (concentration at which each compound inhibited cholesterol esterification by 50%), 10% FCS, 4 h then 2 h [14C] oleate pulse): 35 nM
